Results from patent US11453640B2, “Small molecules for disrupting the super elongation complex and inhibiting transcription elongation for cancer therapy” (NORTHWESTERN UNIVERSITY, priority 2018, dated 2022).

Key:
[1] = Toxicity test in mice (body weight, sickness); assay type: in vivo; conditions: 5 doses of 50 mg/kg, monitored 35 days
Description: FIG. 14, related to FIG. 7. SEC disruptors delay tumor progression and improve survival of MDA231-LM2 tumor mice. (A) KL-1 and KL-2 inhibit the colony formation of MDA231-LM2 cells in vitro. 5×10^3 MDA231-LM2 cells were seeded in 6-well plates and treated with KL-1 or KL-2 at the indicated doses for 5 days. Crystal violet staining was performed to stain the colonies. (B) KL-1 and KL-2 induce apoptosis in MDA231-LM2 cells. Bar graph depiction of Annexin V positive MDA231-LM2 cells after 24 hr of KL-1 and KL-2 treatments at the indicated concentrations. Data are represented as Mean+/−SD. […] Each individual line indicates the weights of each mouse during toxicity test.

[2] = system: MYC; assay: mRNA-seq of 293T cells after 24 hr treatment; assay type: cell-based, human
From the text: FIG. 6. SEC disruption targets MYC and MYC target genes. (A-B) Venn diagram of deregulated genes in 293T cells by KL-1 and KL-2. […] (C) Heat map showing the expression changes in response to SEC inhibitors, with differentially expressed canonical MYC targets, RNA splicing factors, and core SNRP assembly genes highlighted. […] Each cluster is represented by different colors and a circle node denotes each enriched term. (E) MA plots of RNA splicing and Hallmark MYC target genes in KL-2 treated, AFF1 and AFF4 co-depletion, and ELL2-depleted cells. […] The MYC genes, the PRMT5 gene, and genes encoding SEC components are denoted as red squares. (F) Western analysis of MYC protein levels in the MYC lowly expressed small cell lung cancer cell line […] and MYC-amplified small cell lung cancer cell line H2171. […] The SEC and MYC peaks were determined by MACS with a p-value cutoff at 1E-5. […] Both cell lines were treated with increasing concentrations of KL-1 and KL-2 for 3 days and the cell proliferation was measured with CellTiter-Glo luminescent cell viability assay (Promega) (n=3-6).
RNA-seq Analysis. […] Exonic reads were assigned to specific genes from Ensembl release 75 using Bioconductor package GenomicRanges countOverlaps. […] The total number of uniquely mapped reads was provided to edgeR for the calcNormFactors normalization rather than the default column sums. […]

[3] = system: heat shock inducible genes in HCT-116 cells; assay: Heat shock induction in HCT-116 cells (Pol II ChIP-seq); assay type: cell-based, human; conditions: 5 hr pretreatment, 42° C. 1 hr
Description: FIG. 5. SEC inhibitors block transcription elongation in SEC-dependent rapid response models. (A-B) Genome browser tracks of Pol II ChIP-seq at the FOS, HSPD1 and HSPE1 genes after 1 hr heat shock of HCT-116 cells treated with vehicle (DMSO) or the indicated SEC inhibitors. HCT-116 cells were pretreated with inhibitors for 5 hr at 37° C. before exchanging medium with conditioned 42° C. medium. Dark and light colors indicate the 37 and 42° C. conditions, respectively. (C) Genome-wide identification of heat shock-induced genes with fold change of reads per million in gene bodies and pausing index. Red dots are the 136 heat shock-induced genes according to Pol II signals (fold change of reads per million in gene bodies >1.5 and pausing index decreased >1.5-fold in the DMSO-treated condition). […] Box plot analysis depicts the log2 fold changes of reads per million in gene bodies (E) (y axis) after heat shock with pretreatment of vehicle or SEC inhibitors. […]
Chromatin Immunoprecipitation Sequencing. […] ChIP-seq reads were aligned to the Drosophila genome (UCSC dm3) or human genome (UCSC hgl9). Alignments were processed with Bowtie version 1.1.2, allowing only uniquely mapping reads with up to two mismatches within the 50 bp read. The resulting reads were extended to 150 bp toward the interior of the sequenced fragment and normalized to total reads aligned (reads per million, r.p.m.). […]

COc1cccc(C(=O)CC(=O)C(=O)Nc2cc(Cl)ccc2C)c1 [KL-1, N-(5-chloro-2-methylphenyl)-4-oxo-4-(3-methoxyphenyl)-2-oxobutanamide]
weight loss in mice ([1]; intraperitoneal): does not result in significant weight loss | sign of sickness in mice [1]: no obvious sign of sickness was observed | MYC expression [2]: led to decreased MYC expression | induction of heat shock inducible genes [3]: block induction of known heat shock inducible genes
